What was measured:
Assay type in all cases: biochemical
DYRK1A = biological target: T1, DYRK1A (Homo sapiens, UniProt Q13627); assay: Inhibition test on activity of DYRK family, mobility shift assay (MSA), DYRK1A; details: ATP 100 μM, FITC-labeled DYRKtide peptide substrate, room temperature 1 hour; for IC50: read-out: Inhibitory Activity 1a (IC50 against DYRK1A)
T1 construct: purchased Carna Biosciences, Inc. 04-130
Experimental: (§1) [Inhibition Test on Activity of DYRK Family (DYRK1A, DYRK1B, DYRK2, and […])]
(§2) (Method for Measuring Kinase Activity)
(§3) The kinase activity was measured by mobility shift assay (MSA) method using QuickScout Screening Assist™ MSA (commercially available kit manufactured by Carna Biosciences, Inc.). The substrate of the kinase reaction used was an FITC-labeled DYRKtide peptide included in the kit. An assay buffer [20 mM HEPES, 0.01% Triton X-100™, 2 mM dithiothreitol, pH 7.5] was used to create a substrate mixture solution with a substrate (4 μM), MgCl2 (20 mM), and ATP (DYRK1A: 100 μM; DYRK1B: 200 μM; DYRK2: 40 μM; and DYRK3: 20 μM). In addition, kinases (DYRK1A: manufactured by Carna Biosciences, Inc., Cat. No. 04-130; DYRK1B: manufactured by Carna Biosciences, Inc., Cat. No. 04-131; DYRK2; manufactured by Carna Biosciences, Inc., Cat. No. 04-132; and DYRK3; manufactured by Carna Biosciences, Inc., Cat. No. 04-133) were diluted with the assay buffer to prepare enzyme solutions (DYRK1A: 0.2 ng/μL; DYRK1B: 0.08 ng/μL; DYRK2: 0.04 ng/μL; and DYRK3: 0.25 ng/μL). The 10 mM solution of the test compound in DMSO was further diluted with DMSO to 10 levels of the concentration (0.00003 mM, 0.0001 mM, 0.0003 mM, 0.001 mM, 0.003 mM, 0.01 mM, 0.03 mM, 0.1 mM, 0.3 mM, and 1 mM), each of which was subjected to 25-fold dilution with the assay buffer to obtain a drug solution (4% DMSO solution). 5 μL of the drug solution or a control solution (4% DMSO-assay buffer), 5 μL of the substrate mixture solution, and 10 μL of the enzyme solution were mixed in the wells of a polypropylene 384-well plate and allowed to react at room temperature for 1 hour, and then the reaction was quenched by adding 60 μL of the termination buffer included in the kit. Subsequently, the quantities of the substrates (S) and the phosphorylated substrate (P) in the reaction solution were measured using LabChip EZ Reader II system (manufactured by Caliper Life Sciences) according to the protocol of the assay kit.
(§4) (Method for Evaluating Inhibitory Activity)
(§5) The heights of the peaks of the “substrate” and the “phosphorylated substrate” were expressed as S and P, respectively, and a blank containing the assay buffer instead of the enzyme solution was also measured.
(§6) The inhibition rate (%) of the test compound was calculated according to the following equation:
(§7) Inhibition rate (%)=(1−(C−A)/(B−A))×100
(§8) wherein, A, B, and C represent P/(P+S) of the blank well, P/(P+S) of the control solution well, and P/(P+S) of the compound-containing well, respectively.
(§9) The IC50 value was calculated via a regression analysis of the inhibition rate and the test compound concentration (logarithmic value).
(§10) The inhibiting activities of representative compounds of the present invention are shown against DYRK1A, DYRK1B, DYRK2, and DYRK3 in Tables 7 and 8. The kinase activity inhibitory effect was indicated with the mark *** at an IC50 value of less than 0.01 μM; the mark ** at 0.01 μM or more and less than 0.1 μM; the mark * at 0.1 μM or more and less than 1 μM; and the mark — at 1 μM or more (N.D. indicates not measured).

DYRK2 = biological target: T2, DYRK2 (Homo sapiens, UniProt Q92630); assay: Inhibition test on activity of DYRK family, mobility shift assay (MSA), DYRK2; details: ATP 40 μM, FITC-labeled DYRKtide peptide substrate, room temperature 1 hour; for IC50: read-out: Inhibitory Activity 2 (IC50 against DYRK2)
T2 construct: purchased Carna Biosciences, Inc. 04-132
T2 sequence (Q92630 1-601): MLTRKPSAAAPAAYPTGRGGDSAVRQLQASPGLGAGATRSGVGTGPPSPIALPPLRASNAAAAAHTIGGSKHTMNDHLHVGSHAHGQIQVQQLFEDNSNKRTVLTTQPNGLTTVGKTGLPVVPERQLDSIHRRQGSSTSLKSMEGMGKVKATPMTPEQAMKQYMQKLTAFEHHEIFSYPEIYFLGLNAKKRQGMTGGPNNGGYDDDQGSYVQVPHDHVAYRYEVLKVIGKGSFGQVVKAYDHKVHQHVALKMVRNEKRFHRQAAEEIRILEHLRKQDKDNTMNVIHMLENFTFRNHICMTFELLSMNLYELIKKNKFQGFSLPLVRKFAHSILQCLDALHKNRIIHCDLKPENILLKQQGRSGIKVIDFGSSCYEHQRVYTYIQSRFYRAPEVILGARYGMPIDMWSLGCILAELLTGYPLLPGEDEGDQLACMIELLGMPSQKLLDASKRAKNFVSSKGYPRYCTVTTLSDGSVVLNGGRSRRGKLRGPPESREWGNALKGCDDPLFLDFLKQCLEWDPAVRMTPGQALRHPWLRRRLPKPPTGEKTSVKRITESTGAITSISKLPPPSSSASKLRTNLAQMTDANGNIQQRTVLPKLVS
Experimental: as §1, §2, §3, §4, §5, §6, §7, §8, §9, §10

DYRK3 = biological target: T3, DYRK3 (Homo sapiens, UniProt O43781); assay: Inhibition test on activity of DYRK family, mobility shift assay (MSA), DYRK3; details: ATP 20 μM, FITC-labeled DYRKtide peptide substrate, room temperature 1 hour; for IC50: read-out: Inhibitory Activity 3 (IC50 against DYRK3)
T3 construct: purchased Carna Biosciences, Inc. 04-133
T3 sequence (O43781 1-588): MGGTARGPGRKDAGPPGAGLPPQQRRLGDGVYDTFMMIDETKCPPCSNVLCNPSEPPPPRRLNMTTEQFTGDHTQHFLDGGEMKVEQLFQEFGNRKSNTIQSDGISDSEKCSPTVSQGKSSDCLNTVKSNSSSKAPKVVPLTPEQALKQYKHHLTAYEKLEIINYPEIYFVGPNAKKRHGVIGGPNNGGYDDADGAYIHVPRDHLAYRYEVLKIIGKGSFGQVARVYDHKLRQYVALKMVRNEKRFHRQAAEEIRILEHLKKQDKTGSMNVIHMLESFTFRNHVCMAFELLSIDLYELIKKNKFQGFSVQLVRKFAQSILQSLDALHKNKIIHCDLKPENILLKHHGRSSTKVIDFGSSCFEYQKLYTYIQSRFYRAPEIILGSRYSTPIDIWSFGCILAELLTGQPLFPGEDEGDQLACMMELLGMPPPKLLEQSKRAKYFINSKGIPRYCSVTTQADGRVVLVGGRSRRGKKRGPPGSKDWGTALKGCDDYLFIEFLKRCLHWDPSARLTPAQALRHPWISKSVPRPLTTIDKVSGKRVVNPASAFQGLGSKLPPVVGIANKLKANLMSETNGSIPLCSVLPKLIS
Experimental: as §1, §2, §3, §4, §5, §6, §7, §8, §9, §10

SMILES	IC50 (DYRK1A) [µM]	IC50 (DYRK2) [µM]	IC50 (DYRK3) [µM]	Inhibitory Activity 1a (IC50 against DYRK1A) (DYRK1A)	Inhibitory Activity 2 (IC50 against DYRK2) (DYRK2)	Inhibitory Activity 3 (IC50 against DYRK3) (DYRK3)
CC#CC1CNC(=O)N1c1nc2c3c(ccc2s1)OCC3 (single isomer, unassigned) [Example 10, 1-(7,8-dihydrobenzofuro[4,5-d]thiazol-2-yl)-5-(prop-1-yn-1-yl)imidazolidin-2-one]	0.1 to 1	≥ 1	≥ 1			
C#CC1CNC(=O)N1c1nc2c3c(ccc2s1)OCC3 (single isomer, unassigned) [Example 13, 1-(7,8-dihydrobenzofuro[4,5-d]thiazol-2-yl)-5-ethynylimidazolidin-2-one]				* * *	* *	* *
C#CC1CNC(=O)N1c1nc2c3c(ccc2s1)OCC3 (single isomer, unassigned) [Example 14, 1-(7,8-dihydrobenzofuro[4,5-d]thiazol-2-yl)-5-ethynylimidazolidin-2-one]		0.1 to 1	0.1 to 1	* *		
CC#CC1CNC(=O)N1c1nc2c(ccc3ncccc32)s1 (single isomer, unassigned) [Example 34, 5-(prop-1-yn-1-yl)-1-(thiazolo[4,5-f]quinolin-2-yl)imidazolidin-2-one]				* * *	* *	* *
CC#CC1CNC(=O)N1c1nc2c(ccc3ncccc32)s1 (single isomer, unassigned) [Example 36, 5-(prop-1-yn-1-yl)-1-(thiazolo[4,5-f]quinolin-2-yl)imidazolidin-2-one]		0.1 to 1	0.1 to 1	* *		
CC#CC1CNC(=O)N1c1nc2c3c(ccc2s1)OCC(C)N3C (single isomer, unassigned) [Example 48, 1-(-8,9-dimethyl-8,9-dihydro-7H-thiazolo[4′,5′:3,4]benz[1,2-b][1,4]oxazin-2-yl)-5-(prop-1-yn-1-yl)imidazolidin-2-one]	0.1 to 1	≥ 1	≥ 1			
CC#CC1CNC(=O)N1c1nc2c3c(ccc2s1)OCC(C)N3C (single isomer, unassigned) [Example 49, 1-(-8,9-dimethyl-8,9-dihydro-7H-thiazolo[4′,5′:3,4]benz[1,2-b][1,4]oxazin-2-yl)-5-(prop-1-yn-1-yl)imidazolidin-2-one]		≥ 1	0.1 to 1	* * *		
CC#CC1CNC(=O)N1c1nc2c(ccc3ocnc32)s1 (single isomer, unassigned) [Example 52, 5-(prop-1-yn-1-yl)-1-(thiazolo[5′,4′:5,6]benz[1,2-d]oxazol-7-yl)imidazolidin-2-one]		≥ 1	0.1 to 1	* * *		
CC#CC1CNC(=O)N1c1nc2c(ccc3ocnc32)s1 (single isomer, unassigned) [Example 53, 5-(prop-1-yn-1-yl)-1-(thiazolo[5′,4′:5,6]benz[1,2-d]oxazol-7-yl)imidazolidin-2-one]	0.1 to 1	≥ 1	≥ 1			
CC#CC1CNC(=O)N1c1nc2c3c(ccc2s1)OCCO3 (single isomer, unassigned) [Example 58, 1-(7,8-dihydro-[1,4]dioxino[2′,3′:5,6]benz[1,2-d]thiazol-2-yl)-5-(prop-1-yn-1-yl)imidazolidin-2-one]		0.1 to 1		* * *		* *
CC#CC1CNC(=O)N1c1nc2c3c(ccc2s1)OCCO3 (single isomer, unassigned) [Example 59, 1-(7,8-dihydro-[1,4]dioxino[2′,3′:5,6]benz[1,2-d]thiazol-2-yl)-5-(prop-1-yn-1-yl)imidazolidin-2-one]	≥ 1	≥ 1	≥ 1			
CC#C[C@H]1[C@H](CO)NC(=O)N1c1nc2c3c(ccc2s1)OCCO3 (single isomer, unassigned) [Example 65, trans-1-(7,8-dihydro-[1,4]dioxino[2′,3′:5,6]benz[1,2-d]thiazol-2-yl)-4-(hydroxymethyl)-5-(prop-1-yn-1-yl)imidazolidin-2-one]		0.1 to 1	0.1 to 1	* * *		
CC#C[C@H]1[C@H](CO)NC(=O)N1c1nc2c3c(ccc2s1)OCCO3 (single isomer, unassigned) [Example 66, trans-1-(7,8-dihydro-[1,4]dioxino[2′,3′:5,6]benz[1,2-d]thiazol-2-yl)-4-(hydroxymethyl)-5-(prop-1-yn-1-yl)imidazolidin-2-one]	0.1 to 1	≥ 1	≥ 1			
CC#C[C@H]1[C@H](CN(C)C)NC(=O)N1c1nc2c3c(ccc2s1)OCC3 (single isomer, unassigned) [Example 69, trans-1-(7,8-dihydrobenzofuro[4,5-d]thiazol-2-yl)-4-[(dimethylamino)methyl]-5-(prop-1-yn-1-yl)imidazolidin-2-one]		≥ 1	0.1 to 1	* *		
CC#C[C@H]1[C@H](CN(C)C)NC(=O)N1c1nc2c3c(ccc2s1)OCC3 (single isomer, unassigned) [Example 70, trans-1-(7,8-dihydrobenzofuro[4,5-d]thiazol-2-yl)-4-[(dimethylamino)methyl]-5-(prop-1-yn-1-yl)imidazolidin-2-one]	0.1 to 1	≥ 1	≥ 1			
